From the NIST ThermoML archive (doi:10.1021/je025641j)
± gives the expanded uncertainty stated by the source.

Experiment: molar enthalpy of vaporization or sublimation
Details: 298.15 K; Crystal; Static calorimetry

Row | SMILES | molar enthalpy [kcal/mol]
1 | COc1cc(O)cc(OC)c1 [3,5-dimethoxyphenol] | 24.2 ± 0.717
2 | COc1cccc(OC)c1O [1,3-dimethoxy-2-hydroxybenzene] | 23.5 ± 0.43
3 | COc1ccc(O)cc1 [4-methoxyphenol] | 22.6 ± 0.43

Same assay, conditions: 298.15 K; Liquid; Static calorimetry

Row | SMILES | molar enthalpy [kcal/mol]
4 | COc1cccc(O)c1 [3-methoxyphenol] | 18.1 ± 0.43
5 | COc1ccccc1O [2-methoxyphenol] | 15 ± 0.263
6 | COc1cccc(O)c1OC [2,3-dimethoxyphenol] | 18.3 ± 0.406
